# Results reported in patent publication EP3655424B1, “PEPTIDES MODULATING SPERM MOTILITY BY MODULATING THE PHOSPHOPROTEIN PHOSPHATASE 1 COMPLEX” (University of Wolverhampton, priority 2017, dated 2021).
# Read-outs that look alike come from different tables or passages of the source.
# Columns and labels:
# bovine spermatozoa [1] = assay: Motility assay (Sperm Class Analyzer CASA System), bovine sperm; type: cell-based; details: for concentration-dependent effect on motility parameters: 10 µM versus 20 µM
# Experimental: (§1) This study was approved by the Ethics and Internal Review Board of the Hospital Infante D. Pedro E.P.E. (Aveiro, Portugal) and was conducted in accordance with the ethical standards of the Helsinki Declaration. Human semen samples were obtained from a randomized group of donors, by masturbation to a sterile container. All donors signed informed consent allowing the samples to be used for scientific purposes. Basic semen analysis was performed according to World Health Organization (WHO) guidelines. Fresh semen from Holstein Frisian bulls was obtained from LusoGenes, LDA (Aveiro, Portugal). Semen was collected by artificial vagina and assessed by a certified veterinarian. Human and bovine spermatozoa were isolated and washed from seminal plasma by centrifugation (800 g for 5 min, 3 times) using ALLGrade Wash medium (LifeGlobal, Brussels, Belgium). Spermatozoa pellets were resuspended in medium to a final concentration of 20x10^6 cells/0.5 mL and incubated at 37°C with 5 % CO2 until the appropriated treatments were added.
# (§2) Peptides (PPP1CC2-CT, TAMRA-PPP1CC2-CT, AKAP4 and AKAP4 M) were added to bovine and human sperm samples in total volume of 500 µl containing approximately 2 x10^7 sperm cells per well. Control samples included sperm cells in medium alone. The influence of bioportides on sperm motility parameters was assessed using the Sperm Class Analyzer CASA System (Microptic S L, Barcelona, Spain) with SCA® v5.4 software. Samples and controls (2 µl) were loaded into individual chambers of Leja Standrat Count 8 chamber slide 20 µm depth (Leja Products B. V., The Netherlands) which were pre-heated at 37 °C. This temperature was maintained while at least 1000 sperm cells/per measurement were evaluated. Each peptide was tested on samples from 3 individual donors and all the conditions were performed in triplicate.
# (§3) Bovine and human spermatozoa were exposed to different extracellular peptide concentrations (10 and 20 µM) and motility parameters were assessed at 1 and 2 h. For reference, negative controls were performed in the absence of peptides.
# human spermatozoa [2] = assay: Intracellular accumulation / quantitative translocation of TAMRA-labelled peptides, human sperm; type: cell-based
# Experimental: […] Cells were then washed three times (800 g for 5 min) in ALLGrade Wash medium (LigeGlobal, Brussels, Belgium). To confirm if the fluorescently labeled peptides were not merely surface associated, the sperm cell population was divided in two and a trypsin incubation was used to remove any surface associated peptides. In summary, half of the cells were set aside (2 x10^7 cells) and fixed in 4 % paraformaldehyde (PFA) for 20 min. The other half was incubated with 1 % (wt/vol) trypsin at 37 °C, collected by centrifugation at 3000 g, washed in ALLGrade Wash medium (LigeGlobal, Brussels, Belgium) and resuspended in 4 % PFA 20 min. Fixed cells from each preparation were spread into coverslips and allowed to air dry. After mounting, slides were assessed by fluorescence microscopy (Imager.Z1, Axio-Cam HRm camera and AxioVision software, Zeiss, Jena, Germany). Translocation efficacies of CPP-mediated intracellular delivery of the peptides sequences were determined by the quantitative uptake analysis of fluorescently labeled moieties^[3]. […] Cells were then washed four times with PBS, detached with 1 % (w/v) trypsin at 37 °C, collected by centrifugation at 3000 g and lysed in 300 µl 0.1 M NaOH for 2 h on ice. 250 µl of each sample cell lysate were transferred to a black 96-well plate, and analyzed using an Infinite® 200 PRO (Tecan, Switzerland) (λAbs 544 nm/λEm 590 nm).
# bovine spermatozoa [3] = assay: Intracellular accumulation / quantitative translocation of TAMRA-labelled peptides, bovine sperm; type: cell-based
# Experimental: Isolated bovine and human spermatozoa (4 x10^7 cells) were suspended and incubated with 10 µM TAMRA-labeled peptides for 1 h at 37 °C in a humidified atmosphere of 95% air/5 % CO2. Cells were then washed three times (800 g for 5 min) in ALLGrade Wash medium (LigeGlobal, Brussels, Belgium). To confirm if the fluorescently labeled peptides were not merely surface associated, the sperm cell population was divided in two and a trypsin incubation was used to remove any surface associated peptides. In summary, half of the cells were set aside (2 x10^7 cells) and fixed in 4 % paraformaldehyde (PFA) for 20 min. The other half was incubated with 1 % (wt/vol) trypsin at 37 °C, collected by centrifugation at 3000 g, washed in ALLGrade Wash medium (LigeGlobal, Brussels, Belgium) and resuspended in 4 % PFA 20 min. Fixed cells from each preparation were spread into coverslips and allowed to air dry. After mounting, slides were assessed by fluorescence microscopy (Imager.Z1, Axio-Cam HRm camera and AxioVision software, Zeiss, Jena, Germany). Translocation efficacies of CPP-mediated intracellular delivery of the peptides sequences were determined by the quantitative uptake analysis of fluorescently labeled moieties^[3]. Isolated bovine and human spermatozoa were incubated with 10 µM TAMRA-labeled peptides for 1 h at 37 °C in a humidified atmosphere of 5 % CO2. Cells were then washed four times with PBS, detached with 1 % (w/v) trypsin at 37 °C, collected by centrifugation at 3000 g and lysed in 300 µl 0.1 M NaOH for 2 h on ice. 250 µl of each sample cell lysate were transferred to a black 96-well plate, and analyzed using an Infinite® 200 PRO (Tecan, Switzerland) (λAbs 544 nm/λEm 590 nm).
# human spermatozoa [4] = assay: Motility assay (Sperm Class Analyzer CASA System), human sperm; type: cell-based; details: for motility parameters / immotile spermatozoa increased (printed: mean decrease) / mean decrease in fast progressive motility / mean decrease in non-progressive motility / mean decrease in slow progressive motility: human spermatozoa; for immotile spermatozoa increased (printed: mean decrease) / mean decrease in fast progressive motility / mean decrease in non-progressive motility / mean decrease in slow progressive motility: 20 µM
# Experimental: as §1, §2, §3
# PPP1CC2-AKAP4 complex = assay: Disruption of PPP1CC2-AKAP4 complex purified from human sperm (Figure 6B); type: binding; details: co-incubation, AKAP4-BM at 10 µM
# Experimental: To establish that the detected fluorescence was not attributed to surface-associated peptide, isolated sperm cells were incubated for 1h with 10µM TAMRA-labelled peptide and subsequently treated with 1% (w/v) trypsin to remove any peptide bound to the surface of spermatozoa. Negative controls without the TAMRA-labelled peptides were performed and presented no reactivity. Images are representative from three independent experiments. Lower panel (right): Quantitative analyses of peptide translocation into bovine and human spermatozoa. Bovine and human spermatozoa were incubated with TAMRA-labelled bioportides (10µM) for 1 h at 37°C. Data are expressed as fluorescence (minus negative control). Three independent experiments were performed in quadruplicate. […] Graph bars represent the mean values of three independent experiments performed in triplicate. Error bars 95% CI. […] Graph bars represent the mean values of three independent experiments performed in triplicate. Error bars 95% CI. […] Images are representative from 3 independent experiments. […] A PPP1CC2-AKAP4 complex was purified from human sperm (Lane 1, left). […] 12, a PPP1 inhibitor, was used as a positive control and, as expected, also decreases the interaction (lane 4). […]
# bovine spermatozoa [5] = type: cell-based
# Experimental: Bovine spermatozoa viability was evaluated using the trypan blue viability test according to manufacturer's guidelines. Human spermatozoa viability was measured using the CellTiter 96® AQueous Non-Radioactive Cell Proliferation Assay (Promega, Madison, USA) according to manufacturer's guidelines.
# [6] = 10 µM, 1h, compared with negative control
# [7] = 10 µM, 2h, compared with AKAP4-BM M
# [8] = 10 µM, 2h, compared with negative control
# [9] = 20 µM, 1h, compared with AKAP4-BM M
# [10] = 20 µM, 1h, compared with negative control
# [11] = 20 µM, 2h, compared with AKAP4-BM M
# [12] = 20 µM, 2h, compared with negative control
# [13] = 1h, compared with negative control
# [14] = 2h, compared with negative control
substance,measurement,setting,value
"AKAP4-BM M: mutated homologue (GQQDQDRAAAAAVDVSTLNV) of AKAP4-BM coupled to the Penetratin CPP, used as a control [reference compound]",motility parameters,"bovine spermatozoa [1]; compared with negative control, two exceptions: fast progressive motility at 1h with 20 µM, immotile spermatozoa with 10 µM at 1h",did not lead to significant differences
same,intracellular accumulation of red fluorescent (TAMRA) analogues,"human spermatozoa [2]; human spermatozoa, 5 µM, Figure 6A",accumulate within normal healthy human spermatozoa
same,internalization (microscopic analyses),"human spermatozoa [2]; human spermatozoa, 10 µM TAMRA-labelled peptide, 1 h, 37 °C, trypsin treated",internalized less efficiently
same,internalization (microscopic analyses),"bovine spermatozoa [3]; bovine spermatozoa, 10 µM TAMRA-labelled peptide, 1 h, 37 °C, trypsin treated",internalized less efficiently
same,motility parameters,"human spermatozoa [4]; compared with negative control, one exception: fast progressive motility at 2h with 20 µM",did not lead to significant differences
GQQDQDRKVICFVDVSTLNVRQIKIWFQNRRMKWKK [AKAP4-BM],concentration-dependent effect on motility parameters,bovine spermatozoa [1],concentration-dependent effect
same,mean decrease in fast progressive motility,"bovine spermatozoa [1]; 10 µM, 1h, compared with AKAP4-BM M",41.9 ± 20.0%
same,mean decrease in fast progressive motility,bovine spermatozoa [1]; [6],49.8 ± 22.5%
same,mean decrease in fast progressive motility,bovine spermatozoa [1]; [7],43.9 ± 15.3%
same,mean decrease in slow progressive motility,bovine spermatozoa [1]; [7],21.6 ± 64.4%
same,mean decrease in fast progressive motility,bovine spermatozoa [1]; [8],50.5 ± 9.7%
same,mean decrease in slow progressive motility,bovine spermatozoa [1]; [8],42.4 ± 20.4%
same,mean decrease in fast progressive motility,bovine spermatozoa [1]; [9],95.0 ± 6.5%
same,mean decrease in non-progressive motility,bovine spermatozoa [1]; [9],63.1 ± 8.3%
same,"immotile spermatozoa, mean increase",bovine spermatozoa [1]; [10],91.8 ± 25.4%
same,mean decrease in non-progressive motility,bovine spermatozoa [1]; [10],50.0 ± 10.9%
same,mean decrease in slow progressive motility,bovine spermatozoa [1]; [10],95.3 ± 4.8%
same,mean decrease in fast progressive motility,bovine spermatozoa [1]; [11],"98,4 ± 2,6%"
same,mean decrease in non-progressive motility,bovine spermatozoa [1]; [11],63.0 ± 7.5%
same,mean decrease in slow progressive motility,bovine spermatozoa [1]; [11],94.1 ± 4.9%
same,"immotile spermatozoa, mean increase",bovine spermatozoa [1]; [12],183.7 ± 88.4%
same,mean decrease in fast progressive motility,bovine spermatozoa [1]; [12],98.6 ± 2.9%
same,mean decrease in slow progressive motility,bovine spermatozoa [1]; [12],94.2 ± 4.8%
same,interaction between PPP1CC2 and AKAP4,PPP1CC2-AKAP4 complex,disrupts the PPP1CC2-AKAP4 complex
same,internalization (microscopic analyses),human spermatozoa [2],internalized very efficiently
same,internalization (microscopic analyses),bovine spermatozoa [3],internalized very efficiently
same,progressive motility,"human spermatozoa [4]; human sperm, Figure 6C left panel",statistically significant decrease in progressive motility
same,percentage of immotile spermatozoa,"human spermatozoa [4]; human sperm, Figure 6C middle panel",corresponding increase in the percentage of immotile spermatozoa
same,immotile spermatozoa increased (printed: mean decrease),"human spermatozoa [4]; 1h, compared with AKAP4-BM M",47.3 ± 19.2%
same,mean decrease in fast progressive motility,"human spermatozoa [4]; 1h, compared with AKAP4-BM M",87.0 ± 4.3%
same,mean decrease in non-progressive motility,"human spermatozoa [4]; 1h, compared with AKAP4-BM M",43.4 ± 24.8%
same,mean decrease in slow progressive motility,"human spermatozoa [4]; 1h, compared with AKAP4-BM M",85.1 ± 5.2%
same,immotile spermatozoa increased (printed: mean decrease),human spermatozoa [4]; [13],63.0 ± 27.8%
same,mean decrease in fast progressive motility,human spermatozoa [4]; [13],49.8 ± 22.5%
same,mean decrease in non-progressive motility,human spermatozoa [4]; [13],31.0 ± 26.9%
same,mean decrease in slow progressive motility,human spermatozoa [4]; [13],"87,6 ± 5,2%"
same,immotile spermatozoa increased (printed: mean decrease),"human spermatozoa [4]; 2h, compared with AKAP4-BM M",41.9 ± 14.7%
same,mean decrease in fast progressive motility,"human spermatozoa [4]; 2h, compared with AKAP4-BM M",82.7 ± 20.7%
same,mean decrease in non-progressive motility,"human spermatozoa [4]; 2h, compared with AKAP4-BM M",50.6 ± 21.0%
same,mean decrease in slow progressive motility,"human spermatozoa [4]; 2h, compared with AKAP4-BM M",82.3 ± 11.5%
same,immotile spermatozoa increased (printed: mean decrease),human spermatozoa [4]; [14],74.5 ± 28.3%
same,mean decrease in fast progressive motility,human spermatozoa [4]; [14],50.5 ± 9.7%
same,mean decrease in non-progressive motility,human spermatozoa [4]; [14],58.6 ± 16.1%
same,mean decrease in slow progressive motility,human spermatozoa [4]; [14],"85,7 ± 8,7%"
same,percentage of viable spermatozoa,bovine spermatozoa [5],slight decrease
RQIKIWFQNRRMKWKKKPNATRPVTPPRVASGLNPSIQKASNYRNNTVLY (H-RQIKIWFQNRRMKWKKKPNATRPVTPPRVASGLNPSIQKASNYRNNTVLY-NH2) [PPP1CC2-CT],concentration-dependent effect on motility parameters,bovine spermatozoa [1],no concentration-dependent effect
same,"immotile spermatozoa, mean increase",bovine spermatozoa [1]; [6],72.5 ± 33.6%
same,mean decrease in fast progressive motility,bovine spermatozoa [1]; [6],55.9 ± 19.4%
same,mean decrease in slow progressive motility,bovine spermatozoa [1]; [6],49.9 ± 41%
same,"immotile spermatozoa, mean increase",bovine spermatozoa [1]; [8],128.3 ± 85.3%
same,mean decrease in fast progressive motility,bovine spermatozoa [1]; [8],53.9 ± 19.9%
same,mean decrease in slow progressive motility,bovine spermatozoa [1]; [8],17.4 ± 57%
same,"immotile spermatozoa, mean increase",bovine spermatozoa [1]; [10],86.2 ± 72.3%
same,mean decrease in fast progressive motility,bovine spermatozoa [1]; [10],64.2 ± 8.3%
same,mean decrease in slow progressive motility,bovine spermatozoa [1]; [10],31.4 ± 35%
same,mean decrease in fast progressive motility,bovine spermatozoa [1]; [12],44.6 ± 9.7%
same,non-progressive motility,"bovine spermatozoa [1]; 10 and 20 µM, 1 and 2 h, Figure 3",No significant alterations
same,internalization (microscopic analyses),human spermatozoa [2],internalized very efficiently
same,internalization (microscopic analyses),bovine spermatozoa [3],internalized very efficiently
same,motility parameters,human spermatozoa [4]; 10 µM,did not induce any significant alterations
same,mean decrease in fast progressive motility,human spermatozoa [4]; [14],34.5 ± 12.3%
